Results reported in ChEMBL document CHEMBL3352098, “A class of 4-sulfamoylphenyl-ω-aminoalkyl ethers with effective carbonic anhydrase inhibitory action and antiglaucoma effects” (J Med Chem, 2014).
Calls of active or inactive are those of the source. The calls are words filed in the database; no cut-off is given here.

target: Carbonic anhydrase 9 (Homo sapiens, UniProt Q16790); experiment: Inhibition of human CA-9 by stopped flow CO2 hydrase assay; details: not given

| SMILES | Ki [nM] |
| --- | --- |
| NS(=O)(=O)c1ccc(OCCCCNC(=S)Nc2ccc(-c3c4ccc(=O)cc-4oc4cc(O)ccc34)c(C(=O)O)c2)cc1 | 8.8 |
| CC(C)(C)OC(=O)NCCCOc1ccc(S(N)(=O)=O)cc1 | 5.8 |
| NS(=O)(=O)c1ccc(OCCCNC(=S)Nc2ccc(-c3c4ccc(=O)cc-4oc4cc(O)ccc34)c(C(=O)O)c2)cc1 | 7.2 |
| CN(C)c1ccc2c(-c3ccc(NC(=S)NCCOc4ccc(S(N)(=O)=O)cc4)cc3C(=O)O)c3ccc(=[N+](C)C)cc-3oc2c1 | 9.6 |
| NCCCCCCOc1ccc(S(N)(=O)=O)cc1 | 6.5 |
| CC(C)(C)OC(=O)NCCCCCOc1ccc(S(N)(=O)=O)cc1 | 7.1 |
| NS(=O)(=O)c1ccc(OCCNC(=S)Nc2ccc(-c3c4ccc(=O)cc-4oc4cc(O)ccc34)c(C(=O)O)c2)cc1 | 8.5 |
| NCCOc1ccc(S(N)(=O)=O)cc1 | 8.7 |
| NCCCOc1ccc(S(N)(=O)=O)cc1 | 17.9 |
| CN(C)c1ccc2c(-c3ccc(NC(=S)NCCCOc4ccc(S(N)(=O)=O)cc4)cc3C(=O)O)c3ccc(=[N+](C)C)cc-3oc2c1 | 7.9 |
| NCCCCCOc1ccc(S(N)(=O)=O)cc1 | 6.6 |
| CC(C)(C)OC(=O)NCCCCCCOc1ccc(S(N)(=O)=O)cc1 | 6.9 |
| CC(C)(C)OC(=O)NCCOc1ccc(S(N)(=O)=O)cc1 | 8.3 |
| NCCCCOc1ccc(S(N)(=O)=O)cc1 | 32.6 |

system: Oryctolagus cuniculus; experiment: Antiglaucoma activity in New Zealand albino rabbit assessed as reduction in hypertonic saline-induced intraocular pressure at 2% solution administered topically measured after 2 hrs; type: functional, organism-based; details: Eye

| SMILES | Activity |
| --- | --- |
| NCCCCOc1ccc(S(N)(=O)=O)cc1 | Active |
| CC(C)(C)OC(=O)NCCCCOc1ccc(S(N)(=O)=O)cc1 | Active |
